This passage reports EC50 results from patent publication US11596692B1 (Incyte Corporation, priority 2018, dated 2023).

The structures appear in SMILES notation. Read-outs that look alike come from different tables or passages of the source. Some results are limits rather than exact numbers.

This test relates to IRF3. Description: IRF3 activation assay in THP-1 Dual cells. Type of test: cell-based. As to conditions: Homo sapiens, read-out: THP1 IRF3 EC50. How it is done: THP-1 Dual Cells (Invivogen) were maintained in RPMI1640 medium with addition of 10% FBS, 100 μg/ml zeocin, 10 μg/ml blasticidin. Cells were added in a 96-well flat bottom assay plate at 100,000 per well in 100 μL complete RPMI medium. Test compounds were prepared by serial dilution in complete RPMI medium and 100 μL test compounds were transferred to each corresponding well. The assay plate was incubated at 37° C., 5% CO2 for 24 hours. After the overnight incubation, 20 μL of the culture supernatants were collected, followed by addition of 180 μL of QUANTI-Blue (Invivogen) to assess IRF3 activity. The amount of IRF3 activation was assessed by reading the absorbance at 620-655 nm with a microplate reader 2 hours later. The culture supernatant from the untreated THP-1 cells was used as the negative control. EC50 determination was performed by fitting the curve of percent control activity versus the log of the compound concentration using the GraphPad Prism 6.0 software.

On to `CCn1nc(C)cc1C(=O)Nc1nc2cc(C(N)=O)cc(OCCCO)c2n1C/C=C/Cn1c2nc(-c3cc(C)nn3CC)ncc2c2cc(C(N)=O)cc(OCCCN3CCOCC3)c21` [Example S20, (E)-9-(4-(5-carbamoyl-2-(1-ethyl-3-methyl-1H-pyrazole-5-carboxamido)-7-(3-hydroxypropoxy)-1H-benzo[d]imidazol-1-yl)but-2-en-1-yl)-2-(1-ethyl-3-methyl-1H-pyrazol-5-yl)-8-(3-morpholinopropoxy)-9H-pyrimido[4,5-b]indole-6-carboxamide], for which the EC50 (THP-1, Table 4A) is at most 100 nM; the EC50 (THP-1, Table 4B) was below 200 nM; the 50% effective concentration (EC50) (THP-1, Table 4C) is at most 50 nM. For `CCn1nc(C)cc1-c1ncc2c3cc(C(N)=O)cc(OCCCO)c3n(C/C=C/Cn3c4nc(-c5cc(C)nn5CC)ncc4c4cc(C(N)=O)cc(OCCCO)c43)c2n1` [Example S65, (E)-9,9′-(but-2-ene-1,4-diyl)bis(2-(1-ethyl-3-methyl-1H-pyrazol-5-yl)-8-(3-hydroxypropoxy)-9H-pyrimido[4,5-b]indole-6-carboxamide)], for the setting “THP-1, Table 4A”, the EC50 was at most 100 nM. On to `CCc1nn(C)cc1-c1ncc2c3cc(C(N)=O)ccc3n(C/C=C/Cn3c(NC(=O)c4cc(C)nn4CC)nc4cc(C(N)=O)cc(C)c43)c2n1` [Example S8, (E)-9-(4-(5-carbamoyl-2-(1-ethyl-3-methyl-1H-pyrazole-5-carboxamido)-7-methyl-1H-benzo[d]imidazol-1-yl)but-2-enyl)-2-(3-ethyl-1-methyl-1H-pyrazol-4-yl)-9H-pyrimido[4,5-b]indole-6-carboxamide], for which the EC50 was 500 to 1000 nM (THP-1, Table 4A); below 1000 nM (THP-1, Table 4B); 500 to 1000 nM (THP-1, Table 4C).

As to `CCn1nc(C)cc1C(=O)Nc1nc2cc(C(N)=O)cc(OC(C)C)c2n1C/C=C/Cn1c2nc(-c3cc(C)nn3CC)ncc2c2cc(C(N)=O)cc(OCCCOC)c21` [Example S35, (E)-9-(4-(5-carbamoyl-2-(1-ethyl-3-methyl-1H-pyrazole-5-carboxamido)-7-isopropoxy-1H-benzo[d]imidazol-1-yl)but-2-en-1-yl)-2-(1-ethyl-3-methyl-1H-pyrazol-5-yl)-8-(3-methoxypropoxy)-9H-pyrimido[4,5-b]indole-6-carboxamide], the EC50 (THP-1, Table 4C) was 50 to 200 nM. In the case of `CCn1nc(C)cc1C(=O)Nc1nc2cc(C(N)=O)cc(OCCCN)c2n1C/C=C/Cn1c2nc(-c3cc(C)nn3CC)ncc2c2cc(C(N)=O)cc(OCCCOC)c21` [Example S38, (E)-9-(4-(7-(3-aminopropoxy)-5-carbamoyl-2-(1-ethyl-3-methyl-1H-pyrazole-5-carboxamido)-1H-benzo[d]imidazol-1-yl)but-2-en-1-yl)-2-(1-ethyl-3-methyl-1H-pyrazol-5-yl)-8-(3-methoxypropoxy)-9H-pyrimido[4,5-b]indole-6-carboxamide], under “THP-1, Table 4C”, the EC50 lay within 500 to 1000 nM. In the case of `CCn1nc(C)cc1C(=O)Nc1nc2cc(C(N)=O)cc(OCCCOC)c2n1C/C=C/Cn1c2nc(-c3cc(C)nn3CC)ncc2c2cc(C(N)=O)cc(OCCCOC(=O)NCCC(=O)O)c21` [Example S57, (E)-3-((3-(6-carbamoyl-9-(4-(5-carbamoyl-2-(1-ethyl-3-methyl-1H-pyrazole-5-carboxamido)-7-(3-methoxypropoxy)-1H-benzo[d]imidazol-1-yl)but-2-enyl)-2-(1-ethyl-3-methyl-1H-pyrazol-5-yl)-9H-pyrimido[4,5-b]indol-8-yloxy)propoxy)carbonylamino)propanoic acid], for the setting “THP-1, Table 4C”, the EC50 fell in the range of 50 to 200 nM. Same read-out and setting: with `CCn1nc(C)cc1C(=O)Nc1nc2cc(C(N)=O)cc(OCCCNC(=O)CCC(=O)O)c2n1C/C=C/Cn1c2nc(-c3cc(C)nn3CC)ncc2c2cc(C(N)=O)cc(OCCCOC)c21` [Example S64, (E)-4-((3-((5-carbamoyl-1-(4-(6-carbamoyl-2-(1-ethyl-3-methyl-1H-pyrazol-5-yl)-8-(3-methoxypropoxy)-9H-pyrimido[4,5-b]indol-9-yl)but-2-en-1-yl)-2-(1-ethyl-3-methyl-1H-pyrazole-5-carboxamido)-1H-benzo[d]imidazol-7-yl)oxy)propyl)amino)-4-oxobutanoic acid] the figure was 50 to 200 nM; with `CCn1nc(C)cc1C(=O)Nc1nc2cc(C(N)=O)cc(OCCCO)c2n1C/C=C/Cn1c2nc(-c3cc(C)nn3CC)ncc2c2cc(C(N)=O)cc(OCCCNC(=O)CCCC(=O)O)c21` [Example S53, (E)-5-(3-(6-carbamoyl-9-(4-(5-carbamoyl-2-(1-ethyl-3-methyl-1H-pyrazole-5-carboxamido)-7-(3-hydroxypropoxy)-1H-benzo[d]imidazol-1-yl)but-2-enyl)-2-(1-ethyl-3-methyl-1H-pyrazol-5-yl)-9H-pyrimido[4,5-b]indol-8-yloxy)propylamino)-5-oxopentanoic acid], at most 50 nM.

For `CCn1nc(C)cc1C(=O)Nc1nc2cc(C(N)=O)cc(OCCCO)c2n1C/C=C/Cn1c2ccc(C(N)=O)cc2c2cnc(-c3cc(C)nn3CC)nc21` [Example S18, (E)-9-(4-(5-carbamoyl-2-(1-ethyl-3-methyl-1H-pyrazole-5-carboxamido)-7-(3-hydroxypropoxy)-1H-benzo[d]imidazol-1-yl)but-2-en-1-yl)-2-(1-ethyl-3-methyl-1H-pyrazol-5-yl)-9H-pyrimido[4,5-b]indole-6-carboxamide], the EC50 runs as follows: (THP-1, Table 4A) at most 100 nM; (THP-1, Table 4B) below 200 nM; (THP-1, Table 4C) at most 50 nM. Take `CCn1nc(C)cc1C(=O)Nc1nc2cc(C(N)=O)cc(OCCCNS(=O)(=O)CCCC(=O)O)c2n1C/C=C/Cn1c2nc(-c3cc(C)nn3CC)ncc2c2cc(C(N)=O)cc(OCCCOC)c21` [Example S50, (E)-4-(N-(3-((5-carbamoyl-1-(4-(6-carbamoyl-2-(1-ethyl-3-methyl-1H-pyrazol-5-yl)-8-(3-methoxypropoxy)-9H-pyrimido[4,5-b]indol-9-yl)but-2-en-1-yl)-2-(1-ethyl-3-methyl-1H-pyrazole-5-carboxamido)-1H-benzo[d]imidazol-7-yl)oxy)propyl)sulfamoyl)butanoic acid]: for the setting “THP-1, Table 4C”, the EC50 was at most 50 nM. With `CCn1nc(C)cc1C(=O)Nc1nc2cc(C(N)=O)cc(OCCCNC(=O)CCCC(=O)O)c2n1C/C=C/Cn1c2nc(-c3cc(C)nn3CC)ncc2c2cc(C(N)=O)cc(OCCCOC)c21` [Example S39, (E)-5-((3-((5-carbamoyl-1-(4-(6-carbamoyl-2-(1-ethyl-3-methyl-1H-pyrazol-5-yl)-8-(3-methoxypropoxy)-9H-pyrimido[4,5-b]indol-9-yl)but-2-en-1-yl)-2-(1-ethyl-3-methyl-1H-pyrazole-5-carboxamido)-1H-benzo[d]imidazol-7-yl)oxy)propyl)amino)-5-oxopentanoic acid], the EC50 (THP-1, Table 4C) was at most 50 nM. Take `CCn1nc(C)cc1C(=O)Nc1nc2cc(C(N)=O)cc(C)c2n1C/C=C/Cn1c2nc(-c3cc(C)nn3CC)ncc2c2cc(C(N)=O)cc(OCCCOC)c21` [Example S12, (E)-9-(4-(5-carbamoyl-2-(1-ethyl-3-methyl-1H-pyrazole-5-carboxamido)-7-methyl-1H-benzo[d]imidazol-1-yl)but-2-enyl)-2-(1-ethyl-3-methyl-1H-pyrazol-5-yl)-8-(3-methoxypropoxy)-9H-pyrimido[4,5-b]indole-6-carboxamide]: the EC50 is at most 100 nM (THP-1, Table 4A); below 200 nM (THP-1, Table 4B); at most 50 nM (THP-1, Table 4C).

The term EC50 denotes the concentration that produces a half-maximal response.
